Publication PMC11940194, “Synthesis, Antiproliferative Activity, and ADME Profiling of Novel Racemic and Optically Pure Aryl-Substituted Purines and Purine Bioisosteres” (Biomolecules, 2025)
Read-outs that look alike come from different tables or passages of the source.

Key:
[1] = system: normal skin fibroblasts (HFF-1); set-up: method as in PMID 29271659; details: toxicity to normal cells; read-out: IC50 normal cells of analog without linker; cited from earlier work
[2] = system: normal skin fibroblasts (HFF-1); assay: Cytotoxicity MTT assay, normal skin fibroblasts; assay type: cell-based, human; details: Homo sapiens, HFF-1, 72 h, 72 h incubation, mean ± SD
In short: (§1)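 Seeding density followed doubling time: 3000 cells per well for the cancer lines, 5000 for normal fibroblasts. Test substances, freshly diluted from 0.01 to 100 µM, were incubated with the cells for 72 h before MTT measurement of growth rate. IC50 values came from linear regression of dose–response curves.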

[3] = system: MDCKII-MDR1 cells (P-glycoprotein); assay: MDCKII-MDR1 permeability assay; assay type: in vitro ADME, canine cells with over-expressed human MDR1 gene; details: permeability class
In short: (§2)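 Bidirectional transport across MDCKII cells overexpressing human MDR1, compounds 10 µM (1% DMSO) for 60 min at 37 °C, with and without 2 µM elacridar. Monolayer integrity checked by Lucifer yellow; compound concentrations quantified by LC-MS/MS (MRM).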

[4] = system: P-glycoprotein (human MDR1); assay: MDCKII-MDR1 permeability assay; assay type: in vitro ADME, canine cells with over-expressed human MDR1 gene; details: dog, MDCK-MDR1
In short: as §2

[5] = system: hepatocellular carcinoma (HepG2) cells; assay: Antiproliferative MTT assay, HepG2; assay type: cell-based, human; details: SI = [IC50 HFF]/[IC50 HepG2]
In short: as §1

[6] = Hydrolytic stability in aqueous buffer (UV/Vis); assay type: physicochemical; details: phosphate buffer/DMSO 99:1, pH 7.4, 1 × 10⁻⁴ mol dm⁻³, UV/Vis spectra over 24 h
Source text: Solvents and chemicals, including starting purines and purine bioisosters 1–5, as well as para-substituted 2-phenyloxiranes 11–15 and phenacyl bromide 21–25, were purchased from Sigma-Aldrich (St. Louis, MO, USA), Alfa Aesar (Haverhill, MA, USA), and Fisher Scientific International (Pittsburgh, PA, USA). The progress of all reactions was monitored by thin layer chromatography on pre-coated Merck (Darmstadt, Germany) silica gel plates 60F254. The synthesized compounds were purified via column chromatography using Fluka (Buchs, Switzerland) silica gel (0.063−0.2 mm) and the appropriate solvent. All NMR spectra were recorded using a Bruker 300, 400, and 600 MHz NMR spectrometer (Bruker Biospin, Rheinstetten, Germany) in deuterated DMSO solutions, with TMS as the internal standard. The melting points of all newly synthesized compounds were determined using a Koffler (Reichert, Vienna) hot stage microscope. The ^1H (δ/ppm) and ^13C NMR (δ/ppm) spectra of compounds 26a,b–49a,b can be found in the Supporting Information (Figures S1–S48). The purity of all newly synthesized compounds was determined by elemental analysis and the elemental analysis results are within 0.5% of the theoretical values. The UV/Vis absorption spectra of compounds 40a, 45a, and 49b were measured at a concentration of 1 × 10⁻⁴ mol dm⁻³ in phosphate buffer and DMSO (99:1, v/v) at pH 7.4 using a Varian Cary 50 spectrophotometer in double-beam mode at 25 °C.
Selected 6-chloropurine (40a), 4-chloropyrrolo[2,3-d]pyrimidine (45a), and 4-chloroimidazo[4,5-c]pyridine (49b) with significant antiproliferative activity were examined for hydrolytic stability in an aqueous buffer solution.
2. UV/Vis absorption spectra of selected compounds
Figure S49. UV/Vis absorption spectra of compounds 40a (a), 45a (b), and 49b (c) recorded in phosphate buffer with 1% DMSO (99:1, v/v) at pH 7.4 (c = 1 × 10⁻⁴ mol dm⁻³). Spectra were measured immediately after sample preparation and after 24 hours to evaluate spectral stability over time.
(1 picture or pasted object on this page, not shown here)

[7] = system: breast adenocarcinoma (MCF7) cells; assay: Antiproliferative MTT assay, MCF-7; assay type: cell-based, human; details: Homo sapiens, MCF7; 72 h incubation, MTT; mean ± SD
In short: as §1

[8] = system: MCF-7, CFPAC-1, HT-29, HepG2 tumor cell lines and HFF-1 fibroblasts; assay: Antiproliferative activity, whole cell line panel; assay type: cell-based, human; details: tested cell lines
Procedure: The human ATCC tumor cell lines breast adenocarcinoma (MCF7), colorectal carcinoma (HT-29), pancreatic ductal adenocarcinoma (CFPAC-1), hepatocellular carcinoma (HepG2), and normal skin fibroblasts (HFF) derived from ATCC (American Type Culture Collection) were cultured in Dulbecco’s Modified Eagle Medium (DMEM) or Minimum Essential Medium (MEM) supplemented with 10% fetal bovine serum (FBS), 2 mM L-glutamine, 100 U/mL penicillin, and 100 µg/mL streptomycin (Lonza, Basel, Switzerland) in a humidified atmosphere with 5% CO2 at 37 °C. For the experiment, carcinoma cell lines and normal human cell lines were seeded in 96-well microtiter plates at a density of 3000 cells per well and 5000 cells per well, respectively, depending on the doubling time of the specific cell line. The test substances were then added at fivefold, tenfold dilutions (0.01 to 100 µM), freshly prepared in the growth medium on the day of testing, and incubated for a further 72 h. After 72 h of incubation, the growth rate of the cells was determined using the MTT assay according to the manufacturer’s guidelines. […] The IC50 values were calculated from the dose–response curves using linear regression analysis. The experiment was performed in tetraplicates in two individual experiments.
Newly synthesized compounds were evaluated for their cytotoxic activity in vitro against four human cancer cell lines, including human breast adenocarcinoma (MCF-7), ductal pancreatic adenocarcinoma (CFPAC-1), colorectal carcinoma (HT-29), and hepatocellular carcinoma (HepG2), as well as on non-cancerous skin fibroblasts (HFF-1), to check for non-specific toxicity. Furthermore, 5-Fluorouracil (5-FU) was used as a reference drug. The results are expressed as 50% inhibitory concentration (IC50) values and are listed in Table 2, Table 3, Table 4 and Table 5.

[9] = system: colorectal carcinoma (HT-29) cells; assay: Antiproliferative MTT assay, HT-29; assay type: cell-based, human
In short: as §1

Structure (SMILES)	IC50 [1] [µM]	IC50 [2] [µM]	Permeability [3]	Papp A→B at 60 min, 10 µM ([4]; 10 µM, 60 min, 37 °C) [×10⁻⁶ cm/s]	Papp B→A at 60 min, 10 µM ([4]; 10 µM, 60 min, 37 °C) [×10⁻⁶ cm/s]	efflux ratio at 60 min, 10 µM ([4]; <2 no efflux, >2 active efflux)	SI (HepG2) [5]	hydrolytic stability [6]	IC50 [7] [µM]	antiproliferative activity (in words) [8]	IC50 ([9]; Homo sapiens, HT-29, 72 h, 72 h incubation, MTT, mean ± SD) [µM]	SI (HT-29) ([9]; SI = [IC50 HFF]/[IC50 HT-29])
FC(F)(F)c1ccc(-n2cc(Cn3cnc4c(Cl)ncnc43)nn2)cc1	0.75	–	–	–	–	–	–	–	–	–	–	–
OCC(c1ccc(C(F)(F)F)cc1)n1cc(Cn2cnc3c(Cl)ncnc32)nn1 (stereo not drawn) [Compound 40a, 6-Chloro-9-((1-(2-hydroxy-1-(4-(trifluoromethyl)phenyl)ethyl)-1H-1,2,3-triazol-4-yl)methyl)-9H-purine]	–	18 ± 0.6	MODERATE	2.1	60.6	29.5	28.1	hydrolytically stable	19 ± 4.3	submicromolar antiproliferative activity	0.69 ± 0.01	26.1
